Experimental data as given in PubChem BioAssay (NCI).
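Briefly, cells in 96-well plates were exposed to five compound concentrations for 48 h, and endpoints were estimated by linear interpolation. At the TGI there is no net growth.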

Key:
Assay in all cases: NCI tumour cell line growth inhibition, 48 h
SNB-19 CNS = tested on: SNB-19 CNS
SNB-75 CNS = tested on: SNB-75 CNS
IGROV1 ovarian = tested on: IGROV1 ovarian
A498 renal = tested on: A498 renal
UACC-257 melanoma = tested on: UACC-257 melanoma
TK-10 renal = tested on: TK-10 renal
LOX IMVI melanoma = tested on: LOX IMVI melanoma
OVCAR-3 ovarian = tested on: OVCAR-3 ovarian
U251 CNS = tested on: U251 CNS
KM12 colon = tested on: KM12 colon
SF-295 CNS = tested on: SF-295 CNS
M19-MEL melanoma = tested on: M19-MEL melanoma
HOP-92 NSCLC = tested on: HOP-92 NSCLC
HT29 colon = tested on: HT29 colon
786-0 renal = tested on: 786-0 renal
HOP-62 NSCLC = tested on: HOP-62 NSCLC
SK-OV-3 ovarian = tested on: SK-OV-3 ovarian
T-47D breast = tested on: T-47D breast
DU-145 prostate = tested on: DU-145 prostate
MDA-N = tested on: MDA-N

Compound	TGI (SNB-19 CNS) [µM]	TGI (SNB-75 CNS) [µM]	TGI (IGROV1 ovarian) [µM]	TGI (A498 renal) [µM]	TGI (UACC-257 melanoma) [µM]	TGI (TK-10 renal) [µM]	TGI (LOX IMVI melanoma) [µM]	TGI (OVCAR-3 ovarian) [µM]	TGI (U251 CNS) [µM]	TGI (KM12 colon) [µM]	TGI (SF-295 CNS) [µM]	TGI (M19-MEL melanoma) [µM]	TGI (HOP-92 NSCLC) [µM]	TGI (HT29 colon) [µM]	TGI (786-0 renal) [µM]	TGI (HOP-62 NSCLC) [µM]	TGI (SK-OV-3 ovarian) [µM]	TGI (T-47D breast) [µM]	TGI (DU-145 prostate) [µM]	TGI (MDA-N) [µM]
CN1Cc2cc3c(cc2-c2ccccc21)OCO3	> 100	> 100	> 100	> 100	> 100	> 100	> 100	> 100	> 100	> 100	> 100	> 100	> 100	> 100	> 100					
CCCCCCCC(=O)OCC1OC(OC)C(NC(=O)N(CCCl)N=O)C(O)C1O (centres undefined)	> 100	53.3	67.1	56.8	41.3	58	23.8	47.7	> 70.1	27.7	33	49.2	9.96	50.3	22.7	23.1	97.1			
O=C(COC(=O)c1cccc2c(=O)c3ccccc3[nH]c12)Nc1ccccc1	> 100	> 100	> 100	> 100	> 100	> 100	73.2	> 100	> 100	54.1	> 100	> 100	> 100	> 100	> 100	> 100	> 100			
CN(Cc1ccccc1)C(=NC#N)N(C)Cc1ccccc1	> 100		> 100		> 100	> 100	> 100	> 100	> 100	> 100	> 100	> 100	> 100	> 100	> 100	> 100	> 100			
Cc1nn(C)cc1P(=S)(c1ccccc1)c1ccccc1	> 100	85.1	> 100	> 100	> 100	> 100	> 100	> 100	> 100	> 100	> 100	> 100	> 100	> 100	> 100	> 100	> 100			
CC(C)N1CN(C(C(=O)N[C@@H]2C(=O)N3C2SC(C)(C)C3C(=O)O)c2ccc(O)cc2)CSC1=S (some centres undefined)	> 100	> 100	> 100	> 100	> 100	> 100	> 100	> 100	> 100	> 100	> 100	> 100	> 100	> 100	> 100	> 100	> 100			
N#CCC(=O)N/N=C(\C(=O)Nc1ccc(Cl)c(Cl)c1)C1CN(c2ccccc2)N=C1N (centres undefined)		> 100	> 100	> 100	> 100	> 100	> 100	> 100	> 100	> 100	> 100	> 100	> 100	> 100	> 100	> 100	> 100			
Clc1cc2n[se]nc2cc1Cl	> 100	> 100	> 100	> 100	> 100	> 100	> 100		> 100	> 100	> 100	> 100		> 100	> 100	> 100	> 100			
O=C1C2CN(Cc3ccccc3)CC1CN(CC1CC1)C2	> 100	> 100	> 100	> 100	> 100	> 100	> 100	> 100	> 100	> 100	> 100	> 100	> 100	> 100	> 100	> 100	> 100			
Cc1ccc(C(=O)OCC(C)C)cc1N=NN(C)C	> 100		> 100		71.1	> 100	> 85.2	90.6	> 100	> 100	> 87.5	> 100	> 100	> 100	> 100	> 100	> 100	> 100	> 100	> 100
CCOc1ccc(NC(=O)C2=C(C)NC(C)=C(C(=O)Nc3ccc(OCC)cc3)C2c2ccccc2)cc1	> 100	> 100	> 100	> 100	> 100	> 100	> 100	> 100	> 100	> 100	> 100	> 100	> 100	> 100	> 100	> 100	> 100			
COc1cc(/C=C2\C(=O)N(C(=O)c3ccc(NC(C)=O)cc3)N=C2C)ccc1O	> 100	> 100			> 100	> 100	> 100	> 100		> 100	> 100	> 100		> 100	> 100	> 100				
NCCN1C(=O)C2C3c4ccccc4C(c4ccccc43)C2C1=O (centres undefined)	> 100	> 100	> 100	> 100	> 100	> 100		> 100	> 100	> 100	> 100	> 100	> 100	> 100	> 100	> 100	> 100			
Cc1nn(-c2nc3ccccc3s2)c2c1C(=O)c1ccccc1-2	> 100	> 100	> 100	> 100	> 100	> 100	> 100	> 100	> 100	> 100	> 100	> 100	> 100	> 100	> 100	> 100	> 100			
O=[N+]([O-])c1c(C=Nc2ccccc2)oc(-c2ccc3c(c2)OCO3)c1-c1ccc2c(c1)OCO2	> 100	> 100	> 100		> 100	> 100	> 100	> 100	> 100	> 100	> 100	> 100	> 100	> 100	> 100	> 100	> 100			
Cc1ccc(NC2=N/C(=C/c3ccccc3)C(Cl)=N2)cc1	> 100	> 100	> 100	> 100	> 100	> 100	> 100	> 100	> 100	> 100	> 100		> 100	> 100	> 100	> 100	> 100	> 100	> 100	> 100
COc1c(C)cc2c(c1O)C1NC(C2)[C@H](O)N2C3COC(=O)[C@@]4(CS[C@@H](c5c(OC(C)=O)c(C)c6c(c53)OCO6)C12)NCCC1=C4NC2C=CC=CC12 (some centres undefined)		< 0.01	< 0.01	< 0.01		1.31	< 0.01	< 0.01	< 0.01		< 0.01	< 0.01		0.107	< 0.01	< 0.01				
CC(=O)OCCOc1cc2c([nH]c3ccccc32)c(C)c2cccc1-2	8.97	3.51	4.84	26.5	3.74	5.4	6.57	4.97	3.16	10.3	15.2		5.32	21.6	11	18.5	18.5	5.57	15.8	11
Cc1nc2ccccc2c(=O)n1NC(=S)Nc1ccc(Cl)cc1[N+](=O)[O-]	> 100	> 100	> 100	> 100	> 100	> 100		> 100	> 100	> 100	> 100	> 100	> 100	> 100	> 100	> 100	> 100	> 100	> 100	> 100
CCOC(=O)C1=CC(C)(C(=O)OCC)Nc2c(nc(OC)[nH]c2=O)N1 (centres undefined)	> 10	> 10	> 10	> 10	> 10	> 10	> 10	> 10	> 10	> 10	> 10		> 10	> 10	> 10	> 10	> 10	> 10	> 10	> 10
CN(C)CCCCN1c2ccccc2Sc2ccc(C(=O)c3ccccc3)cc21	12	6.92	7.89	32.5	3.76	8.42	3.44	9.88	7.52	4.99	4.82		8.99	3.88	4.83	6.99	27.2	13	10.7	6.74
CCOP(=O)(OCC)C(C(=O)OC)C(=O)C(=O)Nc1c(C)cc(Br)cc1C (centres undefined)	> 100	> 100	> 100	> 100	> 100	> 100	> 100	> 100	> 100	> 100		> 100	> 100	> 100	> 100	> 100	> 100			
COc1ccc(C=C(c2ccc(OCc3ccccc3)cc2)c2ccc(OCc3ccccc3)cc2)cc1	> 100	> 100	> 100		> 100	> 100	> 100	> 100	> 100	> 100	> 100	> 100		> 100	> 100	> 100	> 100			
Cc1nc2c(o1)C(=O)c1ccccc1C2=Nc1ccc(N2CCOCC2)cc1	36.9	5.03	30.4	35.4	4.64	99.1	8.62	5.12	14.4	66.8	5.98		> 100	60.9	61	22.3	> 100	19	7.81	3.5
CC(O)C1(CNc2cc(Cl)nc(N)n2)CC(CCc2ccccc2)C1 (centres undefined)	34	40	28.4	27.3	19.8	43.1	16.9	33.7	27.6	27.7	27.6		25	25.7	39	27.3	29.2	44.1	35.9	27.6
COc1ccc2[nH]cc(CCNC(=O)[C@](O)(Cc3cn(C)c4ccccc34)[C@@]3(O)OCC(O)C3O)c2c1 (some centres undefined)	> 100	> 100	> 100		> 100	> 100	> 100	> 100	> 100	> 100	> 100	> 100	> 100	> 100	> 100	> 100	> 100			
COc1cc(/C=C\c2cccnc2)cc(OC)c1OC	> 100	> 100	> 100		> 100	> 100	71.3	> 100	> 100	> 100	> 100	> 100	> 100	> 100	> 100	> 100				
